{"source": "patent US20100316713A1", "about": "“PHARMACEUTICAL COMPOSITION” (priority 2007, published 2010)", "experiment": "stability of the drug substance in water", "type": "physicochemical", "data": [{"smiles": "CN1CCN(c2nc(C3=C(c4c[nH]c5ccccc45)C(=O)NC3=O)c3ccccc3n2)CC1", "note": "[3-(1.H.-indol-3-yl)-4-[2-(4-methyl-piperazin-1-yl)-quinazolin-4-yl]-pyrrole-2,5-dione]", "values": [{"measurement": "water sensitivity", "setting": "may convert to free base hydrate, solvate or amorphous form in the presence of ethanol and/or water", "value": "water sensitive"}, {"measurement": "degradation in water", "setting": "water, renders aqueous granulation difficult", "value": "high degradation"}]}]}
